Measurements reported in patent US7741341B2, “Benzimidazole-derivatives as factor Xa inhibitors” (sanofi-aventis Deutschland GmbH, priority 2003, dated 2010).

Biological target: T1, human factor Xa (Homo sapiens, UniProt P00742)
T1 construct: human factor Xa (Enzyme Research Laboratories, Inc; South Bend, Ind.); purchased Enzyme Research Laboratories, Inc; South Bend, Ind
Assay: Factor Xa assay (chromogenic, substrate S-2765)
Assay type: biochemical
Settings: read-out: Ki(FXa)
Procedure, shortened: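 Purified human factor Xa (0.5 nM final) in TBS-PEG was preincubated 10 min with compound in DMSO-containing buffer. The reaction was started with chromogenic substrate S-2765 at 140 μM. IC50 was taken from the concentration series.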

T1 sequence (P00742 235-488 limits assumed): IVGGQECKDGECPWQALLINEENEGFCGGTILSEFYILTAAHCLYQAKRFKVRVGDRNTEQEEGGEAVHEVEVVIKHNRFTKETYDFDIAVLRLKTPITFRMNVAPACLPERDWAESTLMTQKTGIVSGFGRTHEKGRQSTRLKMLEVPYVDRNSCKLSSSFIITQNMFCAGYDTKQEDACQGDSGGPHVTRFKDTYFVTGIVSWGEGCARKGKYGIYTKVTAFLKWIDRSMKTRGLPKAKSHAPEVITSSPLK
T1 sequence (P00742 41-179 partner limits assumed): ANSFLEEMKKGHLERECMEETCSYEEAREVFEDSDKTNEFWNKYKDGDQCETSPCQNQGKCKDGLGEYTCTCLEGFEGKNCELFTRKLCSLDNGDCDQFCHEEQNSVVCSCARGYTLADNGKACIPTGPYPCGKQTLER

Row | Compound | Ki [nM]
1 | CC(C)N1CCC(NC(=O)c2nc3c(C(=O)N4CCOCC4)cccc3n2CC(=O)Nc2ccc(Cl)cn2)CC1 [Example 73, 1-[(5-Chloro-pyridin-2-ylcarbamoyl)-methyl]-4-(morpholine-4-carbonyl)-1H-benzoimidazole-2-carboxylic acid (1-isopropyl-piperidin-4-yl)-amide] | 19
2 | CC(C)N1CCC(NC(=O)c2nc3c(C(=O)N4CCCOCC4)cccc3n2CC(=O)Nc2ccc(Cl)cn2)CC1 [Example 74, 1-[(5-Chloro-pyridin-2-ylcarbamoyl)-methyl]-4-([1,4]oxazepane-4-carbonyl)-1H-benzoimidazole-2-carboxylic acid (1-isopropyl-piperidin-4-yl)-amide] | 10.5
3 | CC(C)N1CCC(NC(=O)c2nc3c(C(=O)N4C(C)CCCC4C)cccc3n2CC(=O)Nc2ccc(Cl)cn2)CC1 (stereo not shown) [Example 75, 1-[(5-Chloro-pyridin-2-ylcarbamoyl)-methyl]-4-(2,6-dimethyl-piperidine-1-carbonyl)-1H-benzoimidazole-2-carboxylic acid (1-isopropyl-piperidin-4-yl)-amide] | 2.6
4 | CC(C)N1CCC(NC(=O)c2nc3c(C(=O)N4CCC(F)(F)CC4)cccc3n2CC(=O)Nc2ccc(Cl)cn2)CC1 [Example 76, 1-[(5-Chloro-pyridin-2-ylcarbamoyl)-methyl]-4-(4,4-difluoro-piperidine-1-carbonyl)-1H-benzoimidazole-2-carboxylic acid (1-isopropyl-piperidin-4-yl)-amide] | 8.5
5 | CC(C)N1CCC(NC(=O)c2nc3cc(C(=O)N4CCCOCC4)ccc3n2CC(=O)Nc2ccc(Cl)cn2)CC1 [Example 77, 1-[(5-Chloro-pyridin-2-ylcarbamoyl)-methyl]-5-([1,4]oxazepane-4-carbonyl)-1H-benzoimidazole-2-carboxylic acid (1-isopropyl-piperidin-4-yl)-amide] | 52.5
6 | CC(C)N1CCC(NC(=O)c2nc3cc(C(=O)OCCO)ccc3n2Cc2cc(-c3ccc(Cl)s3)on2)CC1 [Example 78, 1-[5-(5-Chloro-thiophen-2-yl)-isoxazol-3-ylmethyl]-2-(1-isopropyl-piperidin-4-ylcarbamoyl)-1H-benzoimidazole-5-carboxylic acid 2-hydroxy-ethyl ester] | 3.5
7 | CC(C)N1CCC(NC(=O)c2nc3cc(C(=O)OCC(=O)O)ccc3n2Cc2cc(-c3ccc(Cl)s3)on2)CC1 [Example 79, 1-[5-(5-Chloro-thiophen-2-yl)-isoxazol-3-ylmethyl]-2-(1-isopropyl-piperidin-4-ylcarbamoyl)-1H-benzoimidazole-5-carboxylic acid carboxymethyl ester] | 1
8 | COC1CN(C(=O)c2cccc3c2nc(C(=O)NC2CCN(C(C)C)CC2)n3Cc2cc(-c3ccc(Cl)s3)on2)C1 [Example 80, 1-[5-(5-Chloro-thiophen-2-yl)-isoxazol-3-ylmethyl]-4-(3-methoxy-azetidine-1-carbonyl)-1H-benzoimidazole-2-carboxylic acid (1-isopropyl-piperidin-4-yl)-amide] | 7
9 | CC(C)N1CCC(NC(=O)c2nc3c(C(=O)N4CCC(O)CC4)cccc3n2Cc2cc(-c3ccc(Cl)s3)on2)CC1 [Example 91, 1-[5-(5-Chloro-thiophen-2-yl)-isoxazol-3-ylmethyl]-4-(4-hydroxy-piperidine-1-carbonyl)-1H-benzoimidazole-2-carboxylic acid (1-isopropyl-piperidin-4-yl)-amide] | 21
10 | CC(C)N1CCC(NC(=O)c2nc3c(c(=O)n(C)c(=O)n3C)n2Cc2cc(-c3ccc(Cl)s3)on2)CC1 [Example 92, 7-[5-(5-Chloro-thiophen-2-yl)-isoxazol-3-ylmethyl]-1,3-dimethyl-2,6-dioxo-2,3,6,7-tetrahydro-1H-purine-8-carboxylic acid (1-isopropyl-piperidin-4-yl)-amide] | 22.5
11 | CC(C)N1CCC(NC(=O)c2nc3c(C(=O)NCCO)scc3n2Cc2cc(-c3ccc(Cl)s3)on2)CC1 [Example 102, 3-[5-(5-Chloro-thiophen-2-yl)-isoxazol-3-ylmethyl]-3H-thieno[3,4-d]imidazole-2,6-dicarboxylic acid 6-[(2-hydroxy-ethyl)-amide]2-[(1-isopropyl-piperidin-4-yl)-amide]] | 2.5
12 | CC(C)N1CCC(NC(=O)c2nc3c(C(=O)N4CCCOCC4)scc3n2CC(=O)Nc2ccc(Cl)cn2)CC1 [Example 104, 3-[(5-Chloro-pyridin-2-ylcarbamoyl)-methyl]-6-([1,4]oxazepane-4-carbonyl)-3H-thieno[3,4-d]imidazole-2-carboxylic acid (1-isopropyl-piperidin-4-yl)-amide] | 20
13 | COC(=O)c1sc(OCC(F)(F)F)c2nc(C(=O)NC3CCN(C(C)C)CC3)n(Cc3cc(-c4ccc(Cl)s4)on3)c12 [Example 105, 3-[5-(5-Chloro-thiophen-2-yl)-isoxazol-3-ylmethyl]-2-(1-isopropyl-piperidin-4-ylcarbamoyl)-6-(2,2,2-trifluoro-ethoxy)-3H-thieno[3,4-d]imidazole-4-carboxylic acid methyl ester] | 54500
14 | COCCOc1cccc2c1nc(C(=O)NC1CCN(C(C)C)CC1)n2CC(=O)Nc1ccc(Cl)cn1 [Example 108, 1-[(5-Chloro-pyridin-2-ylcarbamoyl)-methyl]-4-(2-methoxy-ethoxy)-1H-benzoimidazole-2-carboxylic acid (1-isopropyl-piperidin-4-yl)-amide] | 6.5
15 | CCOCCOc1cccc2c1nc(C(=O)NC1CCN(C(C)C)CC1)n2CC(=O)Nc1ccc(Cl)cn1 [Example 109, 1-[(5-Chloro-pyridin-2-ylcarbamoyl)-methyl]-4-(2-ethoxy-ethoxy)-1H-benzoimidazole-2-carboxylic acid (1-isopropyl-piperidin-4-yl)-amide] | 3.5
16 | CC(C)N1CCC(NC(=O)c2nc3c(OCCO)cccc3n2CC(=O)Nc2ccc(Cl)cn2)CC1 [Example 110, 1-[(5-Chloro-pyridin-2-ylcarbamoyl)-methyl]-4-(2-hydroxy-ethoxy)-1H-benzoimidazole-2-carboxylic acid (1-isopropyl-piperidin-4-yl)-amide] | 4
